This is an account of results in the supplement of paper PMC10307832.

Assay in all cases: relative viability (nuclei count vs DMSO), 5 days (fraction); higher = more cells survive
Compound in assay [1]: Cn1c(Nc2ccc(C(F)(F)F)cc2)nc2cc(Oc3ccnc(-c4ncc(C(F)(F)F)[nH]4)c3)ccc21 [RAF265] + COc1cc2c(Oc3ccc(NC(=O)C4(C(=O)Nc5ccc(F)cc5)CC4)cc3F)ccnc2cc1OCCCN1CCOCC1 [Foretinib] (partner 0.25 µM)
The essentials:
(§1)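 One day after seeding in 1536-well plates, lung cancer cell lines were dosed by pin tool. Dosing was either single-drug or a fixed anchor-drug dose plus five library-drug doses (not always all listed) in √10 steps. After 5 days, nuclei were stained in one fix-and-stain step and counted on 4× images, and relative viability is the nuclei count of treated wells over that of vehicle wells, given as the median of duplicate plates.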

Compound in assay [2]: Cn1c(Nc2ccc(C(F)(F)F)cc2)nc2cc(Oc3ccnc(-c4ncc(C(F)(F)F)[nH]4)c3)ccc21 [RAF265] + CS(=O)(=O)N1CCN(Cc2cc3nc(-c4cccc5[nH]ncc45)nc(N4CCOCC4)c3s2)CC1 [Pictilisib] (partner 1 µM)
The essentials: as §1

Compound in assay [3]: Cc1ccc(-n2nc(C(C)(C)C)cc2NC(=O)Nc2ccc(OCCN3CCOCC3)c3ccccc23)cc1 [Doramapimod] + COc1cccc2cc(-c3nc([C@H]4CC[C@H](C(=O)O)CC4)n4ncnc(N)c34)[nH]c12 [OSI-027] (partner 0.5 µM)
Summed up: as §1

Compound in assay [4]: Cn1c(Nc2ccc(C(F)(F)F)cc2)nc2cc(Oc3ccnc(-c4ncc(C(F)(F)F)[nH]4)c3)ccc21 [RAF265] + CC(=O)c1c(C)c2cnc(Nc3ccc(N4CCNCC4)cn3)nc2n(C2CCCC2)c1=O [Palbociclib] (partner 0.5 µM)
The essentials: as §1

For 201T, the relative viability worked out at 1.1 in assay [1] (first compound 0.01 µM); 1.1 in assay [1] (first compound 0.03162 µM); 1.09 in assay [1] (first compound 0.1 µM); 1.21 in assay [1] (first compound 0.3162 µM); 0.945 in assay [1] (first compound 1 µM); 0.717 in assay [2] (first compound 0.01 µM). Moreover, the relative viability is 0.7 in assay [2] (first compound 0.03162 µM); 0.685 in assay [2] (first compound 0.1 µM); 0.564 in assay [2] (first compound 0.3162 µM); 0.552 in assay [2] (first compound 1 µM); 0.629 in assay [3] (first compound 0.02 µM); 0.785 in assay [3] (first compound 0.06325 µM). In addition, the relative viability in assay [3] (first compound 0.2 µM) turned out to be 0.71; in assay [3] (first compound 0.6325 µM) it was 0.782; in assay [3] (first compound 2 µM), 0.781; in assay [4] (first compound 0.01 µM) it was 0.344; in assay [4] (first compound 0.03162 µM), 0.326; in assay [4] (first compound 0.1 µM), 0.369. For the same cell line, the relative viability in assay [4] (first compound 0.3162 µM) was 0.377; in assay [4] (first compound 1 µM), 0.338.

On to A549, for which the relative viability worked out at 0.927 in assay [1] (first compound 0.01 µM); 0.928 in assay [1] (first compound 0.03162 µM); 0.988 in assay [1] (first compound 0.1 µM); 0.557 in assay [1] (first compound 0.3162 µM); 0.481 in assay [1] (first compound 1 µM); 0.476 in assay [2] (first compound 0.01 µM). Also, the relative viability in assay [2] (first compound 0.03162 µM) turned out to be 0.498; in assay [2] (first compound 0.1 µM), 0.391; in assay [2] (first compound 0.3162 µM), 0.235; in assay [2] (first compound 1 µM), 0.0846.

With A-427, the relative viability came out at 1.12 in assay [1] (first compound 0.01 µM); 0.962 in assay [1] (first compound 0.03162 µM); 0.846 in assay [1] (first compound 0.1 µM); 0.26 in assay [1] (first compound 0.3162 µM); 0.204 in assay [1] (first compound 1 µM); 0.738 in assay [2] (first compound 0.01 µM). Also, the relative viability in assay [2] (first compound 0.03162 µM) came to 0.531; in assay [2] (first compound 0.1 µM) it was 0.797; in assay [2] (first compound 0.3162 µM) it was 0.395; in assay [2] (first compound 1 µM) it was 0.15; in assay [3] (first compound 0.02 µM) it was 0.435; in assay [3] (first compound 0.06325 µM), 0.498. The relative viability in assay [3] (first compound 0.2 µM) came to 0.578; in assay [3] (first compound 2 µM) it was 0.402; in assay [4] (first compound 0.01 µM) it was 0.579; in assay [4] (first compound 0.03162 µM) it was 0.488; in assay [4] (first compound 0.1 µM) it was 0.541; in assay [4] (first compound 0.3162 µM) it was 0.436. Further, the relative viability in assay [4] (first compound 1 µM) came to 0.238.

On to ABC-1, for which the relative viability was 1.16 in assay [1] (first compound 0.01 µM); 1.15 in assay [1] (first compound 0.03162 µM); 1.2 in assay [1] (first compound 0.1 µM); 1.08 in assay [1] (first compound 0.3162 µM); 0.514 in assay [1] (first compound 1 µM); 0.808 in assay [2] (first compound 0.01 µM). Further, the relative viability in assay [2] (first compound 0.03162 µM) was 0.58; in assay [2] (first compound 0.1 µM), 0.608; in assay [2] (first compound 0.3162 µM), 0.525; in assay [2] (first compound 1 µM), 0.458; in assay [3] (first compound 0.02 µM), 0.613; in assay [3] (first compound 0.06325 µM), 0.451. Moreover, the relative viability is 0.433 in assay [3] (first compound 0.2 µM); 0.655 in assay [3] (first compound 0.6325 µM); 0.51 in assay [3] (first compound 2 µM); 0.633 in assay [4] (first compound 0.01 µM); 0.644 in assay [4] (first compound 0.03162 µM); 0.646 in assay [4] (first compound 0.1 µM). In addition, the relative viability was determined as 0.528 in assay [4] (first compound 0.3162 µM) and 0.47 in assay [4] (first compound 1 µM).

Consider BEN, for which the relative viability in assay [1] (first compound 0.01 µM) was 0.665; in assay [1] (first compound 0.03162 µM) it was 0.776; in assay [1] (first compound 0.1 µM), 0.701; in assay [1] (first compound 0.3162 µM) it was 0.664; in assay [1] (first compound 1 µM) it was 0.568; in assay [2] (first compound 0.01 µM), 0.627. Moreover, the relative viability is 0.696 in assay [2] (first compound 0.03162 µM); 0.69 in assay [2] (first compound 0.1 µM); 0.625 in assay [2] (first compound 0.3162 µM); 0.55 in assay [2] (first compound 1 µM); 0.317 in assay [3] (first compound 0.02 µM); 0.309 in assay [3] (first compound 0.06325 µM). Further, the relative viability in assay [3] (first compound 0.2 µM) was found to be 0.33; in assay [3] (first compound 0.6325 µM), 0.236; in assay [3] (first compound 2 µM) it was 0.316; in assay [4] (first compound 0.01 µM), 0.459; in assay [4] (first compound 0.03162 µM) it was 0.477; in assay [4] (first compound 0.1 µM), 0.509. Also, the results for the relative viability in assay [4] (first compound 0.3162 µM) and in assay [4] (first compound 1 µM) were 0.468 and 0.441, respectively.

Consider CAL-12T, for which the relative viability is 1.26 in assay [1] (first compound 0.01 µM); 1.12 in assay [1] (first compound 0.03162 µM); 1.01 in assay [1] (first compound 0.1 µM); 0.924 in assay [1] (first compound 0.3162 µM); 0.746 in assay [1] (first compound 1 µM); 0.359 in assay [2] (first compound 0.01 µM). Besides, the relative viability came to 0.407 in assay [2] (first compound 0.03162 µM); 0.293 in assay [2] (first compound 0.1 µM); 0.278 in assay [2] (first compound 0.3162 µM); 0.223 in assay [2] (first compound 1 µM); 0.627 in assay [3] (first compound 0.02 µM); 0.672 in assay [3] (first compound 0.06325 µM). Besides, the relative viability in assay [3] (first compound 0.2 µM) came to 0.579; in assay [3] (first compound 0.6325 µM) it was 0.711; in assay [3] (first compound 2 µM), 0.532; in assay [4] (first compound 0.01 µM), 0.622; in assay [4] (first compound 0.03162 µM), 0.488; in assay [4] (first compound 0.1 µM) it was 0.364. The relative viability in assay [4] (first compound 0.3162 µM) turned out to be 0.27; in assay [4] (first compound 1 µM) it was 0.178.

For COR-L23, the relative viability in assay [1] (first compound 0.01 µM) was determined as 1.01; in assay [1] (first compound 0.03162 µM), 0.962; in assay [1] (first compound 0.1 µM), 0.864; in assay [1] (first compound 0.3162 µM), 0.893; in assay [1] (first compound 1 µM) it was 0.644; in assay [2] (first compound 0.01 µM) it was 0.874. Besides, the relative viability in assay [2] (first compound 0.03162 µM) came to 0.663; in assay [2] (first compound 0.1 µM), 0.626; in assay [2] (first compound 0.3162 µM), 0.368; in assay [2] (first compound 1 µM), 0.323; in assay [3] (first compound 0.02 µM), 0.688; in assay [3] (first compound 0.06325 µM) it was 0.892. Besides, the relative viability in assay [3] (first compound 0.2 µM) turned out to be 0.84; in assay [3] (first compound 0.6325 µM) it was 0.806; in assay [3] (first compound 2 µM), 0.621; in assay [4] (first compound 0.01 µM) it was 0.295; in assay [4] (first compound 0.03162 µM), 0.233; in assay [4] (first compound 0.1 µM), 0.235. Also, the values for the relative viability in assay [4] (first compound 0.3162 µM) and in assay [4] (first compound 1 µM) were 0.184 and 0.148, respectively.
